The source made the active and inactive calls. The rule behind the calls is not given here.
Legend:
NB-4 [1] = experiment: Cell cycle arrest in human NB4 cells assessed as accumulation of cells at G2/M phase at 0.5 uM incubated for 6 days for DAPI staining based flow cytometric analysis (reference value: 15 %); type: functional; conditions: time 6 day
K562 [2] = experiment: Induction of apoptosis in human K562 cells assessed as necrotic cells at 2 uM incubated for 24 hrs by Annexin V-FITC/PI staining based flow cytometric analysis (reference value: 2.19 %); type: functional
Jurkat = experiment: Induction of cell differentiation in human Jurkat cells at 0.5 uM incubated for 6 days by CD11b staining based flow cytometric analysis; type: functional; conditions: time 6.0 day
NB-4 [3] = experiment: Induction of apoptosis in human NB4 cells at 2 uM incubated for 3 hrs by Western blot analysis; type: functional, cell-based
K562 [4] = experiment: Induction of apoptosis in human K562 cells assessed as late apoptotic cells at 1 uM incubated for 24 hrs by Annexin V-FITC/PI staining based flow cytometric analysis (reference value: 5.98 %); type: functional
ATRA-resistant NB4-LR2 [5] = experiment: Induction of cell differentiation in human ATRA-resistant NB4-LR2 cells at 0.5 uM incubated for 6 days by flow cytometric analysis; type: functional, cell-based; conditions: time 6.0 day
NB-4 [6] = experiment: Cell cycle arrest in human NB4 cells assessed as accumulation of cells at S phase at 0.5 uM incubated for 6 days for DAPI staining based flow cytometric analysis (reference value: 27 %); type: functional; conditions: time 6 day
NB-4 [7] = experiment: Cell cycle arrest in human NB4 cells assessed as accumulation of cells at G0/G1 phase at 0.5 uM incubated for 6 days for DAPI staining based flow cytometric analysis (reference value: 52 %); type: functional; conditions: time 6 day
[8] = Induction of apoptosis in human ATRA-resistant NB4-LR2 cells assessed as necrotic cells at 1 uM incubated for 24 hrs by Annexin V-FITC/PI staining based flow cytometric analysis (reference value: 0.08 %); type: functional
K562 [9] = experiment: Induction of apoptosis in human K562 cells assessed as viable cells at 2 uM incubated for 24 hrs by Annexin V-FITC/PI staining based flow cytometric analysis (reference value: 90.02 %); type: functional; conditions: read-out: Activity
NB-4 [10] = experiment: Induction of apoptosis in human NB4 cells assessed as necrotic cells at 1 uM incubated for 24 hrs by Annexin V-FITC/PI staining based flow cytometric analysis (reference value: 0.07 %); type: functional
ATRA-resistant NB4-LR2 [11] = experiment: Antiproliferative activity against human ATRA-resistant NB4-LR2 cells assessed as effect on cell viability up to 2 uM incubated for 3 days by CCK8 assay; type: functional, cell-based; conditions: time 3.0 day
[12] = target: T1, Retinoic acid receptor alpha (Homo sapiens, UniProt P10276); experiment: Binding affinity to N-terminal His-tagged human RARalpha LBD extracted from Escherichia coli BL21 (DE3) cells assessed as dissociation constant by fluorescence quenching assay
T1 sequence (P10276 whole entry): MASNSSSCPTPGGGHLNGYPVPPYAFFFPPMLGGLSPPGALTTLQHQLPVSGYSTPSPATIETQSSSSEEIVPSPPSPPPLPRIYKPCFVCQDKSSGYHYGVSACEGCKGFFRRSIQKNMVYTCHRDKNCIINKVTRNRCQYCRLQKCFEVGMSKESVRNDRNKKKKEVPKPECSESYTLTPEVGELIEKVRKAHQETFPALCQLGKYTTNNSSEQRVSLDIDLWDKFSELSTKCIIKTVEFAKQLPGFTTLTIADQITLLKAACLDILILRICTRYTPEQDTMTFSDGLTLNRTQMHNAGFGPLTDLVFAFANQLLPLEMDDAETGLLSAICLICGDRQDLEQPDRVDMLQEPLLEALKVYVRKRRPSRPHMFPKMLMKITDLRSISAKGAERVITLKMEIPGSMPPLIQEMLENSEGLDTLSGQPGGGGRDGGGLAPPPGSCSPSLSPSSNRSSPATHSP

NB-4 [13] = experiment: Induction of DNA damage in human NB4 cells assessed as increase in gamma-H2AX expression at 2 uM by Western blot analysis; type: functional, cell-based
NB4 = experiment: Induction of PML-RARalpha degradation in human NB4 cells at 0.5 uM incubated for 6 days by Western blot analysis; type: cell-based; conditions: time 6.0 day
NB-4 [14] = experiment: Induction of apoptosis in human NB4 cells assessed as early apoptotic cells at 1 uM incubated for 24 hrs by Annexin V-FITC/PI staining based flow cytometric analysis (reference value: 4.37 %); type: functional
[15] = Induction of apoptosis in human ATRA-resistant NB4-LR2 cells assessed as early apoptotic cells at 1 uM incubated for 24 hrs by Annexin V-FITC/PI staining based flow cytometric analysis (reference value: 5.38 %); type: functional
NB-4 [16] = experiment: Induction of mitosis in human NB4 cells assessed as upregulation of pS10-histone expression at 2 uM measured after 3 hrs by Western blot analysis; type: functional, cell-based
NB-4 [17] = experiment: Cell cycle arrest in human NB4 cells assessed as increase in PLK1 expression at 2 uM incubated for 3 to 24 hrs by Western blot analysis; type: functional, cell-based; conditions: time 3-24 hrs
[18] = target: T1, Retinoic acid receptor alpha; experiment: Agonist activity at Gal4-fused full length human RARalpha LBD transfected in HEK293T cells co-transfected with pG5luc reporter and Renilla-luc assessed as transactivation incubated for 12 hrs by dual luciferase reporter gene assay; type: cell-based
[19] = target: T2, Retinoic acid receptor beta (Homo sapiens) (UniProt P10826); experiment: Agonist activity at Gal4-fused full length RARbeta LBD (unknown origin) transfected in HEK293T cells co-transfected with pG5luc reporter and Renilla-luc at 0.1 to 1 uM incubated for 12 hrs by luciferase reporter gene assay; type: cell-based; conditions: dose 0.1-1 µM
T2 sequence (whole entry): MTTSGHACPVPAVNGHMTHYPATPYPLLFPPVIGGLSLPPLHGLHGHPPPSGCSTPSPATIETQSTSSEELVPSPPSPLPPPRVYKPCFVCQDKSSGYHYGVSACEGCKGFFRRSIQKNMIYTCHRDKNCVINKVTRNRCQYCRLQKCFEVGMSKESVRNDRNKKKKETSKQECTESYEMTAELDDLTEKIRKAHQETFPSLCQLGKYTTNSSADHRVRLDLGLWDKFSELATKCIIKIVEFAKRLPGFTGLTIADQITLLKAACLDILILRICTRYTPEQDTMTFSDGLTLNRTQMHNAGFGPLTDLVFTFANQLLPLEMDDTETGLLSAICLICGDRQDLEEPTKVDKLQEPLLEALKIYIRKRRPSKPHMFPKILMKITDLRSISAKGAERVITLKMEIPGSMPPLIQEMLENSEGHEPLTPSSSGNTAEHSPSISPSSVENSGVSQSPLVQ

Structure (SMILES) | Activity (NB-4 [1]) [%] | Activity (K562 [2]) [%] | Activity (Jurkat) | Activity (NB-4 [3]) | Activity (K562 [4]) [%] | Activity (ATRA-resistant NB4-LR2 [5]) | Activity (NB-4 [6]) [%] | Activity (NB-4 [7]) [%] | Activity [8] [%] | viability at 2 µM (K562 [9]) [%] | Activity (NB-4 [10]) [%] | Activity (ATRA-resistant NB4-LR2 [11]) | Kd [12] [nM] | Activity (NB-4 [13]) | Activity (NB4) | Activity (NB-4 [14]) [%] | Activity [15] [%] | Activity (NB-4 [16]) | Activity (NB-4 [17]) | EC50 [18] [nM] | other results
Cc1cc2c(cc1C(=O)/C(Br)=C\c1ccc(C(=O)O)cc1)C(C)(C)CCC2(C)C | 14 | 3.03 | inactive | inactive | 6.86 | Minimal_effect | 8 | 72 | 0.49 | 88.8 | 0.52 | Active | 553 | Active; Dna Damage Detected When Apoptosis Occurred | Active | 12.39 | 20.24 | Active | Active | 419 | Activity [19]: Minimal_effect
Cc1cc2c(cc1C(=O)/C(Br)=C/c1ccc(C(=O)O)cc1)C(C)(C)CCC2(C)C | 13 | 2.27 | inactive | inactive | 7.4 | Minimal_effect | 7 | 71 | 1.44 | 88.6 | 1.3 | Active | 433 | Active; Dna Damage Detected When Apoptosis Occurred | Active | 23.14 | 29.03 | Active | Active | 424 | Activity [19]: Minimal_effect

Reference: ChEMBL document CHEMBL6134780, “Halogenated retinoid derivatives as dual RARα and RXRα modulators for treating acute promyelocytic leukemia cells” (Eur J Med Chem, 2024)
